In patent US11470846B2, “Herbicidal pyridino-/pyrimidino-thiazoles” (SYNGENTA PARTICIPATIONS AG, priority 2014, dated 2022):

Tests used:
Assay type in all cases: in vivo
[1] = tested on: Alopecurus myosuroides (ALOMY); assay: Pre-emergence herbicidal activity; conditions: pre-emergence application, 1000 g/Ha, evaluated after 13 days, scale 0-5
Protocol: (§1) B1 Pre-Emergence Herbicidal Activity
(§2) Seeds of a variety of test species were sown in standard soil in pots: Triticum aestivium (TRZAW), Oryza sativa (ORYSA), Avena fatua (AVEFA), Alopecurus myosuroides (ALOMY), Echinochloa crus-galli (ECHCG), Lolium perenne (LOLPE), Zea Mays (ZEAMX), Abutilon theophrasti (ABUTH), Amaranthus retroflexus (AMARE) and Setaria faberi (SETFA). After cultivation for one day (pre-emergence) under controlled conditions in a glasshouse (at 24/16° C., day/night; 14 hours light; 65% humidity), the plants were sprayed with an aqueous spray solution derived from the formulation of the technical active ingredient in acetone/water (50:50) solution containing 0.5% Tween 20 (polyoxyethelyene sorbitan monolaurate, CAS RN 9005-64-5). The test plants were then grown in a glasshouse under controlled conditions (at 24/16° C., day/night; 14 hours light; 65% humidity) and watered twice daily. After 13 days, the test was evaluated (5=total damage to plant; 0=no damage to plant).

Avena fatua (AVEFA) [2] = assay: Pre-emergence herbicidal activity; conditions: pre-emergence application, 1000 g/Ha, evaluated after 13 days, scale 0-5
Protocol: as §1, §2

[3] = tested on: Echinochloa crus-galli (ECHCG); assay: Pre-emergence herbicidal activity; conditions: pre-emergence application, 1000 g/Ha, evaluated after 13 days, scale 0-5; Table 5
Protocol: as §1, §2

Lolium perenne (LOLPE) [4] = assay: Pre-emergence herbicidal activity; conditions: pre-emergence application, 1000 g/Ha, evaluated after 13 days, scale 0-5; Table 5
Protocol: as §1, §2

Oryza sativa (ORYSA) [5] = assay: Pre-emergence herbicidal activity; conditions: pre-emergence application, 1000 g/Ha, evaluated after 13 days, scale 0-5
Protocol: as §1, §2

[6] = tested on: Triticum aestivium (TRZAW); assay: Pre-emergence herbicidal activity; conditions: pre-emergence application, 1000 g/Ha, evaluated after 13 days, scale 0-5
Protocol: as §1, §2

[7] = tested on: Alopecurus myosuroides (ALOMY); assay: Post-emergence herbicidal activity; conditions: post-emergence application, 1000 g/Ha, evaluated after 13 days, scale 0-5
Protocol: (§3) B2 Post-Emergence Herbicidal Activity
(§4) Seeds of a variety of test species were sown in standard soil in pots: Triticum aestivium (TRZAW), Oryza sativa (ORYSA), Avena fatua (AVEFA), Alopecurus myosuroides (ALOMY), Echinochloa crus-galli (ECHCG), Lolium perenne (LOLPE), Zea Mays (ZEAMX), Abutilon theophrasti (ABUTH), Amaranthus retroflexus (AMARE) and Setaria faberi (SETFA). After 8 days cultivation (post-emergence) under controlled conditions in a glasshouse (at 24/16° C., day/night; 14 hours light; 65% humidity), the plants were sprayed with an aqueous spray solution derived from the formulation of the technical active ingredient in acetone/water (50:50) solution containing 0.5% Tween 20 (polyoxyethelyene sorbitan monolaurate, CAS RN 9005-64-5). The test plants were then grown in a glasshouse under controlled conditions (at 24/16° C., day/night; 14 hours light; 65% humidity) and watered twice daily. After 13 days, the test was evaluated (5=total damage to plant; 0=no damage to plant).

Avena fatua (AVEFA) [8] = assay: Post-emergence herbicidal activity; conditions: post-emergence application, 1000 g/Ha, evaluated after 13 days, scale 0-5
Protocol: as §3, §4

[9] = tested on: Echinochloa crus-galli (ECHCG); assay: Post-emergence herbicidal activity; conditions: post-emergence application, 1000 g/Ha, evaluated after 13 days, scale 0-5; Table 7
Protocol: as §3, §4

Lolium perenne (LOLPE) [10] = assay: Post-emergence herbicidal activity; conditions: post-emergence application, 1000 g/Ha, evaluated after 13 days, scale 0-5; Table 7
Protocol: as §3, §4

Oryza sativa (ORYSA) [11] = assay: Post-emergence herbicidal activity; conditions: post-emergence application, 1000 g/Ha, evaluated after 13 days, scale 0-5
Protocol: as §3, §4

[12] = tested on: Triticum aestivium (TRZAW); assay: Post-emergence herbicidal activity; conditions: post-emergence application, 1000 g/Ha, evaluated after 13 days, scale 0-5
Protocol: as §3, §4

| Structure (SMILES) | Control of weed species, ALOMY (damage score) [1] | Control of weed species, AVEFA (damage score) (Avena fatua (AVEFA) [2]) | Control of weed species, ECHCG (damage score) [3] | Control of weed species, LOLPE (damage score) (Lolium perenne (LOLPE) [4]) | Control of weed species, ORYSA (damage score) (Oryza sativa (ORYSA) [5]) | Control of weed species, TRZAW (damage score) [6] | Control of weed species, ALOMY (damage score) [7] | Control of weed species, AVEFA (damage score) (Avena fatua (AVEFA) [8]) | Control of weed species, ECHCG (damage score) [9] | Control of weed species, LOLPE (damage score) (Lolium perenne (LOLPE) [10]) | Control of weed species, ORYSA (damage score) (Oryza sativa (ORYSA) [11]) | Control of weed species, TRZAW (damage score) [12] |
| --- | --- | --- | --- | --- | --- | --- | --- | --- | --- | --- | --- | --- |
| Cc1nc(-c2cccnc2)sc1N(C)C(=S)SC(C)(C)C [Compound A23, tert-butyl N-methyl-N-[4-methyl-2-(3-pyridyl)thiazol-5-yl]carbamodithioate] | 0 | 0 | 0 | 0 | 0 | 0 | 0 | 1 | 1 | 0 | 0 | 0 |
| CN(C(=O)OC(C)(C)C)c1sc(-c2cncc(F)c2)nc1C(F)(F)F [Compound A24] | 2 | 4 | 4 | 3 | 0 | 1 | 0 | 4 | 5 | 4 | 2 | 1 |
| CN(C(=O)OC(C)(C)C)c1sc(-c2cccnc2)nc1C(F)(F)F [Compound A25] | 1 | 4 | 4 | 3 | 1 | 0 | 1 | 4 | 5 | 4 | 1 | 2 |
| CN(C(=O)OC(C)(C)C)c1sc(-c2cncnc2)nc1C(F)(F)F [Compound A26] | 2 | 4 | 4 | 3 | 1 | 0 | 0 | 5 | 5 | 4 | 2 | 1 |
| CN(C(=O)OC(C)(C)C)c1sc(-c2cncc(Cl)c2)nc1C(F)(F)F [Compound A27] | 0 | 2 | 2 | 2 | 0 | 0 | 1 | 4 | 5 | 3 | 1 | 2 |
| COc1cncc(-c2nc(C(F)(F)F)c(N(C)C(=O)OC(C)(C)C)s2)c1 [Compound A28, tert-butyl N-[2-(5-methoxy-3-pyridyl)-4-(trifluoromethyl)thiazol-5-yl]-N-methyl-carbamate] | 0 | 1 | 3 | 2 | 0 | 0 | 1 | 2 | 4 | 3 | 1 | 1 |
